Tested on: IGROV1 complex spheroids (HUVEC, MSC), viability % test/control
Assay: Anticancer human tumor IGROV1 cell line growth inhibition [GQUAD];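 note: spheroids exposed to compounds for 7 days before readout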;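 for viability, T/C: 100% = DMSO vehicle control viability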
Details: for IC50: curve of first compound; for viability, T/C: stronger effect = lower value
Procedure, shortened: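 Tumor cells were grown as complex spheroids with HUVEC endothelial cells and mesenchymal stem cells as stroma. G-quadruplex stabilizers were combined with targeted agents over half-log dilutions from near the clinical Cmax, or from 10 microM.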

[1] = second compound 0.0316 µM, first compound 0.000999 µM
[2] = second compound 0.0316 µM, first compound 0.00316 µM
[3] = second compound 0.0316 µM, first compound 0.00999 µM
[4] = second compound 0.0316 µM, first compound 0.0316 µM
[5] = second compound 0.0316 µM, first compound 0.0999 µM
[6] = second compound 0.0316 µM, first compound 0.316 µM
[7] = second compound 0.1 µM, first compound 0.000999 µM
[8] = second compound 0.1 µM, first compound 0.00316 µM
[9] = second compound 0.1 µM, first compound 0.00999 µM
[10] = second compound 0.1 µM, first compound 0.0316 µM
[11] = second compound 0.1 µM, first compound 0.0999 µM
[12] = second compound 0.1 µM, first compound 0.316 µM
[13] = second compound 0.316 µM, first compound 0.000999 µM
[14] = second compound 0.316 µM, first compound 0.00316 µM
[15] = second compound 0.316 µM, first compound 0.00999 µM
[16] = second compound 0.316 µM, first compound 0.0316 µM
[17] = second compound 0.316 µM, first compound 0.0999 µM
[18] = second compound 0.316 µM, first compound 0.316 µM
[19] = second compound 1 µM, first compound 0.000999 µM
[20] = second compound 1 µM, first compound 0.00316 µM
[21] = second compound 1 µM, first compound 0.00999 µM
[22] = second compound 1 µM, first compound 0.0316 µM
[23] = second compound 1 µM, first compound 0.0999 µM
[24] = second compound 1 µM, first compound 0.316 µM
[25] = second compound 3.16 µM, first compound 0.000999 µM
[26] = second compound 3.16 µM, first compound 0.00316 µM
[27] = second compound 3.16 µM, first compound 0.00999 µM
[28] = second compound 3.16 µM, first compound 0.0316 µM
[29] = second compound 3.16 µM, first compound 0.0999 µM
[30] = second compound 3.16 µM, first compound 0.316 µM
[31] = second compound 10 µM, first compound 0.000999 µM
[32] = second compound 10 µM, first compound 0.00316 µM
[33] = second compound 10 µM, first compound 0.00999 µM
[34] = second compound 10 µM, first compound 0.0316 µM
[35] = second compound 10 µM, first compound 0.0999 µM
[36] = second compound 10 µM, first compound 0.316 µM

Cc1[nH]c2ccccc2c1CCNCc1ccc(/C=C/C(=O)NO)cc1 + Cc1[nH]c2ccc(F)cc2c1-c1nc2c3cccnc3c3ncccc3c2[nH]1
IC50 (second compound 0.0316 µM): 22.8 nM
IC50 (second compound 0.1 µM): 17.6 nM
IC50 (second compound 0.316 µM): 10.6 nM
IC50 (second compound 1 µM): < 0.999 nM
IC50 (second compound 3.16 µM): < 0.999 nM
IC50 (second compound 10 µM): < 0.999 nM
viability, T/C [1]: 107%
viability, T/C [2]: 88.2%
viability, T/C [3]: 80%
viability, T/C [4]: 40.3%
viability, T/C [5]: 4.14%
viability, T/C [6]: 0.24%
viability, T/C [7]: 91.8%
viability, T/C [8]: 102%
viability, T/C [9]: 64.4%
viability, T/C [10]: 32.3%
viability, T/C [11]: 5.9%
viability, T/C [12]: 0.36%
viability, T/C [13]: 61.7%
viability, T/C [14]: 67.6%
viability, T/C [15]: 48.2%
viability, T/C [16]: 28.6%
viability, T/C [17]: 5.96%
viability, T/C [18]: 0.21%
viability, T/C [19]: 3.99%
viability, T/C [20]: 3.36%
viability, T/C [21]: 2.02%
viability, T/C [22]: 2.26%
viability, T/C [23]: 2.15%
viability, T/C [24]: 0.14%
viability, T/C [25]: 2.38%
viability, T/C [26]: 2.86%
viability, T/C [27]: 1.81%
viability, T/C [28]: 1.14%
viability, T/C [29]: 0.49%
viability, T/C [30]: 0.09%
viability, T/C [31]: 3.6%
viability, T/C [32]: 3.82%
viability, T/C [33]: 2.17%
viability, T/C [34]: 1.25%
viability, T/C [35]: 0.54%
viability, T/C [36]: 0.17%

C=CC(=O)N1CCN(c2nc(=O)n(-c3c(C)ccnc3C(C)C)c3nc(-c4c(O)cccc4F)c(F)cc23)C(C)C1 (stereo unspecified) + Cc1cnc(CNC(=O)c2c(=O)c3ccc(N4CCCN(C)CC4)nc3n3c2sc2ccccc23)cn1
IC50 (second compound 0.0316 µM): > 10000 nM
IC50 (second compound 0.1 µM): 78.4 nM
IC50 (second compound 0.316 µM): < 31.6 nM
IC50 (second compound 1 µM): < 31.6 nM
IC50 (second compound 3.16 µM): < 31.6 nM
IC50 (second compound 10 µM): < 31.6 nM
viability, T/C [4]: 82.8%
viability, T/C (second compound 0.0316 µM, first compound 0.1 µM): 77.2%
viability, T/C [6]: 88.5%
viability, T/C (second compound 0.0316 µM, first compound 1 µM): 60.1%
viability, T/C (second compound 0.0316 µM, first compound 3.16 µM): 94.6%
viability, T/C (second compound 0.0316 µM, first compound 10 µM): 66.9%
viability, T/C [10]: 51.8%
viability, T/C (second compound 0.1 µM, first compound 0.1 µM): 49.3%
viability, T/C [12]: 51.4%
viability, T/C (second compound 0.1 µM, first compound 1 µM): 43.8%
viability, T/C (second compound 0.1 µM, first compound 3.16 µM): 46.6%
viability, T/C (second compound 0.1 µM, first compound 10 µM): 51.4%
viability, T/C [16]: 27%
viability, T/C (second compound 0.316 µM, first compound 0.1 µM): 44.7%
viability, T/C [18]: 39.8%
viability, T/C (second compound 0.316 µM, first compound 1 µM): 33.4%
viability, T/C (second compound 0.316 µM, first compound 3.16 µM): 44.9%
viability, T/C (second compound 0.316 µM, first compound 10 µM): 28.6%
viability, T/C [22]: 18.5%
viability, T/C (second compound 1 µM, first compound 0.1 µM): 20.1%
viability, T/C [24]: 17%
viability, T/C (second compound 1 µM, first compound 1 µM): 17.7%
viability, T/C (second compound 1 µM, first compound 3.16 µM): 26.8%
viability, T/C (second compound 1 µM, first compound 10 µM): 19.7%
viability, T/C [28]: 10.2%
viability, T/C (second compound 3.16 µM, first compound 0.1 µM): 11.6%
viability, T/C [30]: 11.6%
viability, T/C (second compound 3.16 µM, first compound 1 µM): 12.5%
viability, T/C (second compound 3.16 µM, first compound 3.16 µM): 15.6%
viability, T/C (second compound 3.16 µM, first compound 10 µM): 12.9%
viability, T/C [34]: 12.3%
viability, T/C (second compound 10 µM, first compound 0.1 µM): 16.2%
viability, T/C [36]: 16.6%
viability, T/C (second compound 10 µM, first compound 1 µM): 15.6%
viability, T/C (second compound 10 µM, first compound 3.16 µM): 14.6%
viability, T/C (second compound 10 µM, first compound 10 µM): 10%

Cn1ncnc1[C@H]1c2n[nH]c(=O)c3cc(F)cc(c23)N[C@@H]1c1ccc(F)cc1 + CN(C)c1ccc(Nc2c3ccc(NC(=O)CCN4CCCC4)cc3nc3cc(NC(=O)CCN4CCCC4)ccc23)cc1
IC50 (second compound 0.0316 µM): 89.6 nM
IC50 (second compound 0.1 µM): 42.8 nM
IC50 (second compound 0.316 µM): 127 nM
IC50 (second compound 1 µM): 93.4 nM
IC50 (second compound 3.16 µM): 56.5 nM
IC50 (second compound 10 µM): < 0.999 nM
viability, T/C [1]: 99.9%
viability, T/C [2]: 88.4%
viability, T/C [3]: 95.1%
viability, T/C [4]: 57%
viability, T/C [5]: 58.4%
viability, T/C [6]: 40.1%
viability, T/C [7]: 101%
viability, T/C [8]: 82.3%
viability, T/C [9]: 68.2%
viability, T/C [10]: 46.2%
viability, T/C [11]: 49.7%
viability, T/C [12]: 35.9%
viability, T/C [13]: 95.7%
viability, T/C [14]: 77.7%
viability, T/C [15]: 81.3%
viability, T/C [16]: 52.2%
viability, T/C [17]: 61.5%
viability, T/C [18]: 38.4%
viability, T/C [19]: 90.6%
viability, T/C [20]: 79%
viability, T/C [21]: 64.9%
viability, T/C [22]: 65.4%
viability, T/C [23]: 57%
viability, T/C [24]: 28.8%
viability, T/C [25]: 86.2%
viability, T/C [26]: 79.4%
viability, T/C [27]: 70.6%
viability, T/C [28]: 58.1%
viability, T/C [29]: 42.1%
viability, T/C [30]: 29.6%
viability, T/C [31]: 47.8%
viability, T/C [32]: 40.2%
viability, T/C [33]: 35.8%
viability, T/C [34]: 35.1%
viability, T/C [35]: 26.9%
viability, T/C [36]: 19.2%

Reference: PubChem BioAssay AID2060486 (Molecular Pharmacology Branch, DTP, NCI, 2025)
